PMC8797470, “Disruption of the pentraxin 3/CD44 interaction as an efficient therapy for triple‐negative breast cancers” (Clinical and Translational Medicine, 2022)
Blank lines part the entries; values can stand above or below the compound they belong to. Ends that are not written are not given here.

Key:
[1] = test system: RANKL, MMP2, NANOG and TWIST2 transcription in MDA-MB-231 cells; experiment: Real-time quantitative PCR of PTX3-induced genes; format: cell-based, human; conditions: wortmannin 100 nM, BAY 11-7085 2 μM, PD98059 10 μM; pre-treated 1 h, then PTX3 24 h
Excerpt: TRIsure RNA extraction reagent (Invitrogen) extracted total RNA. SuperScript™ III Reverse Transcriptase (Invitrogen) was used to synthesis cDNA. Next, SensiFAST™ SYBR (BIOLINE) was applied to perform real‐time quantitative PCR (Q‐PCR) assay. CFX connect Real‐Time PCR System (BIO‐RAD) executed real‐time fluorescence monitoring and the melting curve analysis according to the manufacturer's recommendations. The following pairs of specific primers—human CEBPD (F): 5′‐[…]‐3′ and CEBPD (R): 5′‐[…]‐3′, human PTX3 (F): 5′‐ […]‐3′ and PTX3 (R): 5′‐ […]‐3′, human MMP2 (F): 5′‐ […]‐3′ and MMP2 (R): 5′‐ […]‐3′, human RANKL (F): 5′‐ AGAGC GCAGATGGATCCTAA‐3′ and RANKL (R): 5′‐ TTCCTTTTGCACAGC TCCTT‐3′, human TWIST2 (F): 5′‐[…]‐3′ and TWIST2 (R): 5′‐[…]‐3′, human NANOG (F): 5′‐[…]‐3′ and NANOG (R): 5′‐ […]‐3′, human GAPDH (F): 5′‐ […]‐3′ and GAPDH (R): 5′‐ […]‐3′.

CD44 [2] = molecular target: T1, CD44 (Homo sapiens, UniProt P16070); experiment: Surface plasmon resonance (BIAcore) of N-terminal CD44 on immobilised full-length PTX3; format: binding; conditions: mean ± standard deviation
Excerpt: The BIAcore 3000 system (GE Healthcare Co. Ltd.) was used to determine the direct protein interaction between the full‐length PTX3 (#1826‐TS; R&D Systems) and the N‐terminal of CD44 (#CD44‐3961H; Creative Biomart). Full‐length PTX3 was immobilised onto a CM5 sensor chip (GE Healthcare Co. Ltd.); the immobilisation level was 4000–6000 response units using amine‐coupling chemistry. Briefly, a mixture of 1‐Ethyl‐3‐(3‐dimethylaminopropyl) carbodiimide hydrochloride (EDC) and N‐hydroxysuccinimide activated the surface of the chip, and then diluted full‐length PTX3 (10 μg/ml in acetate buffer pH 3) was injected into the flow cells for immobilisation. Finally, the remaining activated groups were blocked by ethanolamine. The binding parameters of the experiment were measured over a 1‐min association phase and then followed by a 2‐min dissociation phase at a fluid flow rate of 10 μl/min. Phosphate‐buffered saline (PBS, pH 7.2) was used as the analyte running buffer; 0.05% sodium dodecyl sulphate was used to regenerate the chip surface before the next analyte concentration was applied. The 1:1 Langmuir binding model (BIAevaluation 4.1; GE Healthcare Co. Ltd.) were performed to calculate its corresponding association and dissociation rate constants to determine the affinity.
Target sequence in this assay (P16070 32-120 limits assumed): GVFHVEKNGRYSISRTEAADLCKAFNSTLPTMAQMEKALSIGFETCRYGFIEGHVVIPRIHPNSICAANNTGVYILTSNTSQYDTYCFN

MDA-MB-231 cells [3] = experiment: Sphere formation assay; format: cell-based, human; conditions: MDA-MB-231 cells treated with the recombinant protein
Procedure: Note that 5 × 10^3 MDA‐MB‐231 cells were seeded in ultralow attachment plates (Corning) per well. Then, cultured in conditional medium containing the treatment of TGF‐β1, PTX3, PTX3NA, RI37, GI40, IgG1κ, PTX3 Ab‐10 or PTX3 Ab‐49 and the DMEM/F12 (Gibco) added with B27 (Invitrogen), 10 ng/ml bFGF (Peprotech) and 20 ng/ml EGF (Abcam). Number of spheres was calculated by microscope after 2 weeks.

MDA-MB-231 cells [4] = experiment: Transwell migration and Matrigel invasion assays; format: cell-based, human; conditions: treatment in lower well, 18 h
Excerpt: (§1) In migration assay, MDA‐MB‐231 cells seeded in 8.0 μm pore polycarbonate membrane inserts (BD Biosciences) in 24‐well plates. In Matrigel invasion assay, inserts were pre‐coated with an appropriate amount of Matrigel first, and the same number of cells seeded on the Matrigel. After cells adhered on the inserts, serum‐free DMEM medium added in the upper wells. Serum‐free medium containing the treatments of TGF‐β1, PTX3, PTX3NA, PTX3/N, PTX3/C, RI37, GI40, AD9, GR9, IgG1κ, PTX3 Ab‐10 or PTX3 Ab‐49 were then mixed into the lower wells of the 24‐well plates. After incubating for 18 h, cells outside the insert were removed by wiping. The inside the inserts were then stained by 4′,6‐diamidino‐2‐phenylindol (DAPI). Fluorescence microscope was used for counting the total number of migrated cells with 200× magnification. Different from the experimental design for the MDA‐MB‐231 cells, the migrated 4T1‐Luc2 cells in the inside of the insert were detected by luciferase activity.

CD44 [5] = molecular target: T1, CD44; experiment: Ligand binding ELISA on immobilised CD44; set-up: purchased Sino Biological Inc. 12211-H08H; conditions: wells coated with 10 μg/ml CD44, 2 h, OD 450 nm; for binding to immobilised CD44: HRP-conjugated recombinant proteins; for CD44 binding activity of peptides: biotinylated peptides, modified peptides compared with parental peptides
Procedure: Plate wells (9018; Corning Costar) were coated with 10 μg/ml of CD44 (12211‐H08H; Sino Biological Inc.) in PBS (pH 7.2) and then blocking for 1 h with the blocking buffer including 3% milk in PBS. For the stability binding experiments, the PTX3‐devired biotinylated peptides were pre‐incubated in serum for 1, 2, 4 or 6 h. For the binding experiments, the horseradish peroxidase (HRP)‐conjugated recombinant PTX3, PTX3/N, PTX3/C and PTX3NA or PTX3‐devired biotinylated peptides AD9, GR9, P2rdAD9 and P12rdGR9 (32310; LEADGENE) was responded in the well for 2 h. For the peptide of competition experiments, the PTX3‐devired biotinylated peptides RI37 and GI40 were diluted at the indicated concentration in PBS. After 2 h, PBS washed three times and then incubated with 5 μg/ml HRP‐conjugated PTX3 in PBS for 1 h at room temperature (RT). For the antibody competition experiments, Ab‐10 and Ab‐49 were incubated with 5 μg/ml HRP‐conjugated PTX3 in PBS for 2 h at RT. After incubation, the mixtures was responded in the well for 1 h at RT and then PBS washed three times, tetramethyl benzidine (TMB) was used to detect the bound HRP conjugate. After 15 min, the peroxidase reaction was stopped by adding 0.1 M H2SO4. Next, ELISA plate reader was used to detect the optical densities at 450 nm.
Target sequence in this assay (P16070 21-220 limits assumed): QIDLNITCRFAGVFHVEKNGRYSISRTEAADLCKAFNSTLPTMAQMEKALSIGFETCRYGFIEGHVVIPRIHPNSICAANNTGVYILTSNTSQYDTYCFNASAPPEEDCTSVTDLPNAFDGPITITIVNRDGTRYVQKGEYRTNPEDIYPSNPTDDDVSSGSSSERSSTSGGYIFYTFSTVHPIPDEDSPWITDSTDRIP

PTX3 = conditions: read-out: KD for PTX3 binding; cited from earlier work
Excerpt: However, knockdown of CD44 enhanced both JNK and p38 activity, implying that blockade of the PTX3/CD44 interaction positively compensates for JNK and p38 activity.

4T1-Luc2 cells = experiment: Transwell migration assay, luciferase read-out; format: cell-based, mouse; conditions: single peptide, with PTX3 treatment
Excerpt: as §1

[6] = BIAcore 3000, full-length PTX3 amine-coupled to CM5 chip, N-terminal CD44 as analyte, PBS pH 7.2, 1:1 Langmuir model

Compound: CC(C)(C)c1ccc(S(=O)(=O)/C=C/C#N)cc1 [BAY 11‐7085]
PTX3-induced RANKL, TWIST2, MMP2 and NANOG transcription with pathway inhibitors [1]: significantly hampered

Compound: COC[C@H]1OC(=O)c2coc3c2[C@@]1(C)C1=C(C3=O)[C@@H]2CCC(=O)[C@@]2(C)C[C@H]1OC(C)=O [wortmannin]
PTX3-induced RANKL, TWIST2, MMP2 and NANOG transcription with pathway inhibitors [1]: significantly hampered

Compound: COc1cccc(-c2cc(=O)c3ccccc3o2)c1N [PD98059]
PTX3-induced RANKL, TWIST2, MMP2 and NANOG transcription with pathway inhibitors [1]: significantly hampered

association rate constant, K on (CD44 [2]; [6]): 1.30 ± 0.32 × 10^2 M^–1 s^–1 | dissociation rate constant, K off (CD44 [2]; [6]): 2.43 ± 2.35 × 10^–6 s^–1 | Kd (CD44 [2]; N-terminal CD44 and full-length PTX3 binding, calculated from the rate constants, read-out: equilibrium dissociation constant, K D): 0.021 ± 0.012 µM | binding to immobilised CD44 (CD44 [5]): could bind
Compound: pentraxin 3 [PTX3]
sphere formation, protein alone (MDA-MB-231 cells [3]): promoted | migration and invasion, protein alone (MDA-MB-231 cells [4]): enhanced

Compound: TSG‐6: secretory protein, CEBPD‐responsive gene product that interacts with PTX3
Kd (PTX3): 0.314 to 0.648 µM

CD44 binding activity of peptides (CD44 [5]): significantly high binding activity
Compound: AD9: peptide, PTX3 amino acids 209–217 (ACIWVKATD; also: biotin, position not given here)
PTX3-induced migration of 4T1-Luc2 cells (4T1-Luc2 cells): efficiently inhibited

binding to immobilised CD44 (CD44 [5]): not
Compound: PTX3/N: recombinant truncated mutant, N‐terminus of PTX3, amino acids 19–182

CD44 binding activity of peptides (CD44 [5]): significantly high binding activity
Compound: GR9: peptide, PTX3 amino acids 352–360 (GGAESCHIR; also: biotin, position not given here)
PTX3-induced migration of 4T1-Luc2 cells (4T1-Luc2 cells): efficiently inhibited
